In article PMC10343724, “Evaluation of Antimicrobial, Anticholinesterase Potential of Indole Derivatives and Unexpectedly Synthesized Novel Benzodiazine: Characterization, DFT and Hirshfeld Charge Analysis” (Molecules, 2023):

What was measured:
[1] = biological target: acetylcholinesterase (Homo sapiens, UniProt P22303); test: biochemical; conditions: apparent value; due to solubility issues the IC50 values can be far less; read-out: IC50, acetylcholinesterase inhibition
Method: (§1) Azine derivatives, benzoxazepines and benzodiazepines show various biological activities, including antibacterial, antifungal, and anticholinesterase activities. This makes benzo-diazine an excellent candidate for exploration of its potential for cholinesterase inhibition and antimicrobial activities.
(§2) Antibacterial activity was assessed against clinically isolated, antibiotic-resistant strains of Salmonella typhi and Staphylococcus aureus using Disk diffusion assay, as previously described. Anticholinesterase activity was also performed, as described earlier for indoles.

[2] = system: antibiotic-resistant strains of Staphylococcus aureus; test: Disc diffusion assay, antibacterial activity; assay type: cell-based; conditions: clinically isolated antibiotic-resistant S. aureus
Method: (§3) Disc diffusion assay was performed to evaluate the antibacterial potential of compounds (8, 9, 10 and 12) against antibiotic-resistant strains of Salmonella Typhi and Staphylococcus aureus. […] Heterocyclic compounds are well-known for their antibacterial potential. A series of Benzoxazepine derivatives have shown promising antibacterial activities against Staphylococcus sciuri (zone of inhibition as 8–21 mm) and E. coli (zone of inhibition as 8–14 mm). Isoxazolyl benzo [1, 4]diazepine-5-ones have shown antibacterial against both G + ve (B. subtilis, B. sphaericus, S.aureus) and G-ve bacteria (P. aeruginosa, K. aerogenes, C. violaceum).
as §2

[3] = Solubility behaviour in the anticholinesterase reaction mixture; assay type: physicochemical; conditions: anticholinesterase assay reaction mixture
Text: as §1

[4] = system: antibiotic-resistant strains of Salmonella Typhi; test: Disc diffusion assay, antibacterial activity; assay type: cell-based; conditions: clinically isolated antibiotic-resistant S. Typhi
Method: as §3, §2

acetylcholinesterase, sequence (P22303 32-614): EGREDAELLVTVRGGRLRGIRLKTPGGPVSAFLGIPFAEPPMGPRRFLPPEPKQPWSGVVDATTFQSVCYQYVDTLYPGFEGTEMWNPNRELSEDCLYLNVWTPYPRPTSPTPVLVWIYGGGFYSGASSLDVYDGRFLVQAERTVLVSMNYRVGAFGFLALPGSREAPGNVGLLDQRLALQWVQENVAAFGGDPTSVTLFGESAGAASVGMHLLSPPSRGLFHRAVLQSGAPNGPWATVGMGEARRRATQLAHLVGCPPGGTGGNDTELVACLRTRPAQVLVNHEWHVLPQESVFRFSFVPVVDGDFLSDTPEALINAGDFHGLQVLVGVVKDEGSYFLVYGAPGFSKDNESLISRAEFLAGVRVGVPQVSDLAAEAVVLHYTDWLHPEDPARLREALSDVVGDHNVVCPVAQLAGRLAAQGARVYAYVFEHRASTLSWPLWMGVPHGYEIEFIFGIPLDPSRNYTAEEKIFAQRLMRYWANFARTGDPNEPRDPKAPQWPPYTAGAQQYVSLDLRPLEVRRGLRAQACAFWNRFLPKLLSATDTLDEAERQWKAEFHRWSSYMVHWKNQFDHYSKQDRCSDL

COc1cc(OC)c2c(-c3ccccc3)c(-c3ccccc3)[nH]c2c1C(=O)C(Cl)(Cl)Cl [Compound 8, 7-Trichloro-acetyl-4,6-Dimethoxy-2,3-Diphenyl-1H-Indole]
IC50 [1]: 7.31 µM | zone of inhibition (ZOI) [2]: ~ 18 mm

COc1cc(OC)c2c(-c3ccccc3)c(-c3ccccc3)[nH]c2c1C(=O)O [Compound 9, 4,6-Dimethoxy-2,3-Diphenylindole-7-Carboxylic Acid]
precipitation in the reaction mixture [3]: precipitated even at lower concentrations | zone of inhibition (ZOI) [2]: ~21 mm

COc1cc(OC)c2c(-c3ccccc3)c(-c3ccccc3)[nH]c2c1C(N)=O [Compound 10, 4,6-Dimethoxy-2,3-Diphenyl-1H-Indole-7-Carboxamide]
zone of inhibition (ZOI) [2]: ~17 mm

COC(=O)C(C)Oc1nc(-c2ccccc2)nc2c(C(=O)c3ccccc3)c(OC)cc(OC)c12 (stereo not drawn) [Compound 12, 8-Benzoyl-5,7-Dimethoxy-4-(1‴-Methyoxycarbonylethoxy)-2-Phenyl-1,3-Benzodiazine]
precipitation in the reaction mixture [3]: precipitated even at lower concentrations | IC50 [1]: 6.11 µM | zone of inhibition (ZOI) [4]: ~ 13 mm | zone of inhibition (ZOI) [2]: ~20 mm
